In test [1] the target is T1, PRMT5/MEP50 complex (Homo sapiens (Human), UniProt O14744). Kind of test: PRMT5:MEP50 FlashPlate Assay (histone H4 peptide substrate, plus and minus MTA). In kind it is biochemical. On the procedure:
The PRMT5 inhibitory activity of compounds of the present invention was determined using either a PRMT5:MEP50 FlashPlate Assay (Reaction Biology Corporation) or a PRMT5:MEP50 HotSpot Assay (Reaction Biology Corporation).
1. PRMT5:MEP50 FlashPlate Assay

The target in test [2] is T1, PRMT5/MEP50 complex. Kind of test: PRMT5:MEP50 HotSpot Assay (full-length histone H2A substrate, plus and minus MTA). In kind it is biochemical. The settings on record: IC50 + 2 μM MTA, in the presence of 2 μM MTA. In outline: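 Tritium incorporated into recombinant full-length histone H2A was counted by scintillation after stopped reactions were captured on filter paper.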

In another test the test system is HCT116 parental cells. Kind of test: Proliferation assay (CellTiter-Glo, 10 days of treatment), HCT116 parental. In kind it is cell-based. The settings on record: Homo sapiens, HCT-116, 240 h. In a few lines: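 250 cells seeded in McCoy's 5A with 10% FBS, then given a dose response of PRMT5 inhibitor at 37 °C, 5% CO2 for five days. Cells were split 1:10 on Day 6 into fresh medium with the same compound concentration for 5 more days. Viability read on Day 11 by CellTiter-Glo; IC50 after 10 days of treatment.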
(ATP-based viability assays read luminescence as a measure of living cells.)

In test [3] the test system is HCT116 homozygous MTAP knockout cells. Briefly: Proliferation assay (CellTiter-Glo, 10 days of treatment), HCT116 MTAP knockout. The test is classed as cell-based. The settings on record: Homo sapiens, HCT-116, 240 h, read-out: Proliferation HCT116MTAP_KO IC50. In a few lines:
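Viability of the CRISPR/Cas9 homozygous MTAP-knockout HCT116 line was read by CellTiter-Glo after 10 days of PRMT5 inhibitor exposure, with IC50 derived from the dose response. Compound was given the day after seeding and renewed at an identical concentration when cells were split 1:10 on day 6.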

The test system of test [4] is PRMT5-dependent Symmetric Di-methyl Arginine signal in HCT116 parental cells. Kind of test: SYM11 In-Cell Western, HCT116 parental. In kind it is cell-based. Particulars: Homo sapiens, HCT-116, 96 h, 4 days of treatment, SYM11/DRAQ5 ratio. In outline:
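HCT116 parental cells (2,000/well, McCoy's 5A with 10% FBS) dosed with PRMT5 inhibitors for four days at 37° C. Fixed in paraformaldehyde and methanol, then stained with SYM11 antibody and DRAQ5.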

Test [5] concerns PRMT5-dependent Symmetric Di-methyl Arginine signal in HCT116 homozygous MTAP knockout cells. Kind of test: SYM11 In-Cell Western, HCT116 MTAP knockout. In kind it is cell-based. The settings on record: Homo sapiens, HCT-116, 96 h, HCT116 homozygous MTAP knockout cells, 4 days of treatment, SYM11/DRAQ5 ratio; read-out: In-cell-Western (SYM11) HCT116 MTAP_KO IC50.
Setting [6] is: IC50 + 2 μM MTA (nM), in the presence of 2 μM MTA.
The mark [7] stands for this setting: in the absence of MTA, read-out: IC50.

T1 sequence (O14744 2-637): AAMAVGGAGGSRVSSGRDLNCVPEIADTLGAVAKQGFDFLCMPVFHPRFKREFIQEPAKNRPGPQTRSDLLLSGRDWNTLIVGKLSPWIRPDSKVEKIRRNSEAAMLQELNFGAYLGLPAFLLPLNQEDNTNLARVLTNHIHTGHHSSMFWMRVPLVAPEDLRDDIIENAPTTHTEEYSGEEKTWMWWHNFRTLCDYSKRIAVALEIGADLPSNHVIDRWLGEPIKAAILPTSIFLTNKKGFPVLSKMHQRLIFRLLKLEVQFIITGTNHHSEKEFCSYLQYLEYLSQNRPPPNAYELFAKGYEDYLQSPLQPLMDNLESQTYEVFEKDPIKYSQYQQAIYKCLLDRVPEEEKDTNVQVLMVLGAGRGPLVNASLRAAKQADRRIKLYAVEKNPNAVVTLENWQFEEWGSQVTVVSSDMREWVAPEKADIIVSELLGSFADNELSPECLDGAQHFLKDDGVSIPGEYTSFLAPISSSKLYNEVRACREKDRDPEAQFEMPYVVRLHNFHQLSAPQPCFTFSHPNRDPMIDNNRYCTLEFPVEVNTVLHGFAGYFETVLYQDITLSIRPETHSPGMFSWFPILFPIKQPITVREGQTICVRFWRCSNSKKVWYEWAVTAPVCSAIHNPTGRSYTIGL
T1 sequence (Q9BQA1 2-342 partner): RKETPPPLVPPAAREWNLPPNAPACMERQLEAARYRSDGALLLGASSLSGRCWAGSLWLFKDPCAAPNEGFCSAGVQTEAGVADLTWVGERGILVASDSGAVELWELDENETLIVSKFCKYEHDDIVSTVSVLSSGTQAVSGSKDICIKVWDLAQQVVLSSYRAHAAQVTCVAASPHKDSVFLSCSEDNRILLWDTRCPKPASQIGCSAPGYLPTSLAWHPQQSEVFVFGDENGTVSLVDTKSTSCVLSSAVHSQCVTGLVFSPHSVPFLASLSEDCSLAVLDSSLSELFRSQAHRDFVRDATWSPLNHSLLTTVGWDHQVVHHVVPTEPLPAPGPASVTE

Take `Cn1ncc(-c2ccc3c(=O)[nH]nc(CN)c3c2)c1-c1ccccc1C#N` [Example 4-100, 2-(4-(4-(aminomethyl)-1-oxo-1,2-dihydrophthalazin-6-yl)-1-methyl-1H-pyrazol-5-yl)benzonitrile]: the IC50 at PRMT5/MEP50 complex [1] (setting [6]) worked out at 0.5 nM; on PRMT5/MEP50 complex [1] (setting [7]), 80 nM; on PRMT5/MEP50 complex [2] it was 1510 nM; with HCT116 parental cells, 10 µM; in test [3], 5230 nM; in test [4], 10 µM. In addition, the IC50 in test [5] came out at 505 nM.
For `CN(c1ccccc1)c1cncc(-c2ccc3c(=O)[nH]nc(CN)c3c2)c1` [Example 4-159, 4-(aminomethyl)-6-(5-(methyl(phenyl)amino)pyridin-3-yl)phthalazin-1(2H)-one], the IC50 on PRMT5/MEP50 complex [1] (setting [6]) is 4 nM; on PRMT5/MEP50 complex [1] (setting [7]), 68.4 nM; at PRMT5/MEP50 complex [2] it was 393 nM; in the test on HCT116 parental cells, above 10 µM; in test [3] it was 8250 nM; in test [4] it was above 10 µM. Also, in test [5], the IC50 is above 10000 nM.
For the compound `Cc1cccc(-c2c(-c3ccc4c(=O)[nH]nc(CN)c4c3)cnn2C)c1` [Example 4-94, 4-(aminomethyl)-6-(1-methyl-5-(m-tolyl)-1H-pyrazol-4-yl)phthalazin-1(2H)-one], the IC50 stood at 2.2 nM on PRMT5/MEP50 complex [1] (setting [6]); 83 nM on PRMT5/MEP50 complex [1] (setting [7]); 737 nM at PRMT5/MEP50 complex [2]; 4.88 µM in the test on HCT116 parental cells; 1840 nM in test [3]; 10 µM in test [4]. In addition, in test [5], the IC50 was determined as 1180 nM.
On to `COc1ccc(-c2c(-c3ccc4c(=O)[nH]nc(CN)c4c3)cnn2C)c(C#N)c1` [Example 4-160, 2-(4-(4-(aminomethyl)-1-oxo-1,2-dihydrophthalazin-6-yl)-1-methyl-1H-pyrazol-5-yl)-5-methoxybenzonitrile], for which the IC50 was 1110 nM on PRMT5/MEP50 complex [2]; 7.7 µM in the test on HCT116 parental cells; 2030 nM in test [3]; above 10 µM in test [4]; 944 nM in test [5].
In the case of `Cc1cccc2c(C#N)c(-c3c(-c4ccc5c(=O)[nH]nc(CN)c5c4)cnn3C)ccc12` [Example 12-9, 2-(4-(4-(aminomethyl)-1-oxo-1,2-dihydrophthalazin-6-yl)-1-methyl-1H-pyrazol-5-yl)-5-methyl-1-naphthonitrile], the IC50 was 178 nM at PRMT5/MEP50 complex [2]; 3.35 µM in the test on HCT116 parental cells; 148 nM in test [3]; above 10 µM in test [4]; 9 nM in test [5].
The like results for `Cn1ncc(-c2ccc3c(=O)[nH]nc(CN)c3c2)c1-c1ccc(Cl)c(Cl)c1` [Example 4-140, 4-(aminomethyl)-6-(5-(3,4-dichlorophenyl)-1-methyl-1H-pyrazol-4-yl)phthalazin-1(2H)-one] were, in that order, 1100 nM, 6.81 µM, 3870 nM, above 10 µM and 47 nM.
The like results for `COc1cnc2ccc(-c3c(-c4ccc5c(=O)[nH]nc(CN)c5c4)cnn3C)c(C#N)c2c1` [Example 4-197, 6-(4-(4-(aminomethyl)-1-oxo-1,2-dihydrophthalazin-6-yl)-1-methyl-1H-pyrazol-5-yl)-3-methoxyquinoline-5-carbonitrile] were, in that order, 719 nM, 8.57 µM, 256 nM, above 1 µM and 25 nM.
On the same counts, the results for `CCOc1cccc(-c2c(-c3cc(F)c4c(=O)[nH]nc(CN)c4c3)cnn2C)c1C#N` [Example 10-10, 2-(4-(4-(aminomethyl)-8-fluoro-1-oxo-1,2-dihydrophthalazin-6-yl)-1-methyl-1H-pyrazol-5-yl)-6-ethoxybenzonitrile] are 2730 nM, above 10 µM, 1250 nM, above 10 µM and 89 nM.
Take `Cc1c(Cl)ccc(-c2c(-c3ccc4c(=O)[nH]nc(CN)c4c3)cnn2C)c1C#N` [Example 12-1, 6-(4-(4-(aminomethyl)-1-oxo-1,2-dihydrophthalazin-6-yl)-1-methyl-1H-pyrazol-5-yl)-3-chloro-2-methylbenzonitrile]: the IC50 at PRMT5/MEP50 complex [2] was 316 nM; with HCT116 parental cells, above 10 µM; in test [3] it was 158 nM; in test [4] it was above 1 µM; in test [5], 28 nM.
For the compound `COc1cc(Cl)c(C#N)c(-c2c(-c3ccc4c(=O)[nH]nc(CN)c4c3)cnn2C)c1` [Example 4-169, 2-(4-(4-(aminomethyl)-1-oxo-1,2-dihydrophthalazin-6-yl)-1-methyl-1H-pyrazol-5-yl)-6-chloro-4-methoxybenzonitrile], the IC50 at PRMT5/MEP50 complex [2] was 1350 nM; in the test with HCT116 parental cells, above 10 µM; in test [3] it was 294 nM; in test [4] it was 4.52 µM; in test [5], 35.5 nM.
For the compound `CCc1cccc(-c2c(-c3cc(Cl)c4c(=O)[nH]nc(CN)c4c3)cnn2C)c1C#N` [Example 10-4, 2-(4-(4-(aminomethyl)-8-chloro-1-oxo-1,2-dihydrophthalazin-6-yl)-1-methyl-1H-pyrazol-5-yl)-6-ethylbenzonitrile], the IC50 at PRMT5/MEP50 complex [2] was 417 nM; with HCT116 parental cells it was above 10 µM; in test [3] it was 128 nM; in test [4] it was 9.21 µM; in test [5], 7 nM.
Regarding `Cn1ncc(-c2ccc3c(=O)[nH]nc(CN)c3c2)c1-c1cc(C2CC2)ccc1C#N` [Example 4-161, 2-(4-(4-(aminomethyl)-1-oxo-1,2-dihydrophthalazin-6-yl)-1-methyl-1H-pyrazol-5-yl)-4-cyclopropylbenzonitrile], the IC50 on PRMT5/MEP50 complex [2] turned out to be 707 nM; in the test with HCT116 parental cells, 6.71 µM; in test [3], 617 nM; in test [4] it was 6.56 µM; in test [5] it was 87.5 nM.
The like results for `Cc1cc(C)c(C#N)c(-c2c(-c3ccc4c(=O)[nH]nc(CN)c4c3)cnn2C)c1` [Example 12-11, 2-(4-(4-(aminomethyl)-1-oxo-1,2-dihydrophthalazin-6-yl)-1-methyl-1H-pyrazol-5-yl)-4,6-dimethylbenzonitrile] were, in that order, 234 nM, 8.71 µM, 125 nM, 1.23 µM and 18 nM.
The like results for `CCOc1cccc(-c2c(-c3cc(Cl)c4c(=O)[nH]nc(CN)c4c3)cnn2C)c1C#N` [Example 10-5, 2-(4-(4-(aminomethyl)-8-chloro-1-oxo-1,2-dihydrophthalazin-6-yl)-1-methyl-1H-pyrazol-5-yl)-6-ethoxybenzonitrile] were, in that order, 1150 nM, above 10 µM, 250 nM, above 10 µM and 30 nM.
Turning to `Cn1ncc(-c2ccc3c(=O)[nH]nc(CN)c3c2)c1-c1cc(Cl)cc(Cl)c1` [Example 4-141, 4-(aminomethyl)-6-(5-(3,5-dichlorophenyl)-1-methyl-1H-pyrazol-4-yl)phthalazin-1(2H)-one], the IC50 at PRMT5/MEP50 complex [2] came to 794 nM; in the test on HCT116 parental cells it was 5.5 µM; in test [3], 2090 nM; in test [4] it was 4.96 µM; in test [5] it was 88 nM.
On the same counts, the results for `Cc1cc(-c2cnn(C)c2-c2cccc(OC3CC3)c2C#N)cc2c(CN)n[nH]c(=O)c12` [Example 10-12, 2-(4-(4-(aminomethyl)-8-methyl-1-oxo-1,2-dihydrophthalazin-6-yl)-1-methyl-1H-pyrazol-5-yl)-6-cyclopropoxybenzonitrile] are 155 nM, 6.2 µM, 91 nM, above 1 µM and 6 nM.
For `Cc1cc(C#N)c(-c2c(-c3ccc4c(=O)[nH]nc(CN)c4c3)cnn2C)cc1Cl` [Example 4-127, 2-(4-(4-(aminomethyl)-1-oxo-1,2-dihydrophthalazin-6-yl)-1-methyl-1H-pyrazol-5-yl)-4-chloro-5-methylbenzonitrile], the IC50 at PRMT5/MEP50 complex [2] is 2540 nM; with HCT116 parental cells, above 10 µM; in test [3] it was 615 nM; in test [4], 5.92 µM; in test [5] it was 25 nM.
As to `CCOc1ccn2ncc(-c3ccc4c(=O)[nH]nc(CN)c4c3)c2c1` [Example 4-158, 4-(aminomethyl)-6-(5-ethoxypyrazolo[1,5-a]pyridin-3-yl)phthalazin-1(2H)-one], the IC50 on PRMT5/MEP50 complex [1] (setting [6]) is 2.8 nM; at PRMT5/MEP50 complex [1] (setting [7]), 113 nM; at PRMT5/MEP50 complex [2] it was 1460 nM; with HCT116 parental cells it was 1.74 µM; in test [3], 2200 nM; in test [4], above 10 µM. In addition, the IC50 in test [5] was above 10000 nM.
